From patent publication US4349546A, “D-Allose derivative and preparation method therefor” (Wakamoto Pharmaceutical Co., Ltd., priority 1980, dated 1982)

How the values were obtained:
[1] = system: early stage encephalophyma, melanoma, lymphoma; details: background statement; cited from earlier work
[2] = system: Peripheral leukocyte count; assay: Effects on peripheral leukocyte count (Test Example 6); format: in vivo, DDY mice
Text: Comparison of effects of CNUA and Me-CCNU* on peripheral leukocyte count:
Six-week old DDY mice each weighing 22±1 g; one group comprising 5 male mice.
CNUA and Me-CCNU were given intraperitoneally on the first day. The, blood was drawn from a tail vein at time intervals to determine the leukocyte count. The samples were used in the form of a solution in an isotonic sodium chloride solution.

tumor = details: background statement; cited from earlier work

## O=NN(CCCl)C(=O)NCCCl [BCNU, 1,3-bis-(2-chloroethyl)-1-nitrosourea]
[1]
  effectiveness against tumors: effective against early stage encephalophyma, melanoma, lymphoma

## C[C@H]1CC[C@H](NC(=O)N(CCCl)N=O)CC1 [Me-CCNU, 1-(2-chloroethyl)-3-(trans-4-methylcyclohexyl)-1-nitrosourea, reference compound]
[2]; 20 mg/kg ip, 2 day
  Peripheral leukocyte count after the administration: 55.0 % based on the control
[2]; 20 mg/kg ip, 4 day
  Peripheral leukocyte count after the administration: 53.3 % based on the control
[2]; 20 mg/kg ip, 7 day
  Peripheral leukocyte count after the administration: 50.2 % based on the control
[2]; 20 mg/kg ip, 10 day
  Peripheral leukocyte count after the administration: 59.5 % based on the control
[2]; 20 mg/kg ip, 14 day
  Peripheral leukocyte count after the administration: 145 % based on the control
[2]; 40 mg/kg ip, 2 day
  Peripheral leukocyte count after the administration: 56.0 % based on the control
[2]; 40 mg/kg ip, 4 day
  Peripheral leukocyte count after the administration: 36.5 % based on the control
[2]; 40 mg/kg ip, 7 day
  Peripheral leukocyte count after the administration: 34.0 % based on the control
[2]; 40 mg/kg ip, 10 day
  Peripheral leukocyte count after the administration: 40.7 % based on the control
[2]; 40 mg/kg ip, 14 day
  Peripheral leukocyte count after the administration: 78.1 % based on the control
[1]
  effectiveness against tumors: effective against early stage encephalophyma, melanoma, lymphoma

## CN(N=O)C(=O)N[C@H]1C(O)O[C@H](CO)[C@@H](O)[C@@H]1O (stereo partly drawn) [streptozotocin]
tumor
  antitumor effects: exhibit antitumor effects

## O=NN(CCCl)C(=O)N[C@H]1C(O)O[C@H](CO)[C@@H](O)[C@@H]1O (stereo partly drawn) [chlorozotocin]
tumor
  antitumor effects: exhibit antitumor effects

## O=NN(CCCl)C(=O)NC1CCCCC1 [CCNU, 1-(2-chloroethyl)-3-cyclohexyl-1-nitrosourea]
[1]
  effectiveness against tumors: effective against early stage encephalophyma, melanoma, lymphoma
